The text below walks through data of patent publication US12310967B2, “Compositions and methods of treatment for neurological disorders comprising motor neuron diseases” (Gliapharm SA, priority 2017, dated 2025).

Like-named read-outs stand apart in the source and are kept apart here.

Test [1] relates to primary astrocytes. The experiment in a line: Extracellular lactate quantification. The class given is cell-based, mouse. Particulars: for Score_LACTATE: Appendix I, secondary screening: extracellular lactate; for EC50: Mus musculus, Astrocyte. The method in brief: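 Astrocytes were stimulated 90 min at 37 °C in D5030 medium with 5 mM glucose and 44 mM bicarbonate, with compound at 0-100 μM. Extracellular lactate was measured enzymatically with LDH/NAD in glycine-semicarbazide buffer, pH 10, for 1 h at 37 °C. NADH fluorescence (340/450 nm) was converted to lactate using an L-lactate standard curve.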

The subject of test [2] is primary astrocytes. The experiment in a line: MTT viability assay. Type of test: cell-based. Particulars: Mus musculus, Astrocyte; CDC54K hits, 0-200 uM, 24 h. As for the experimental part:
For cell toxicity determination, astrocytes in 96-well plates were stimulated 24 h (37° C. 5% CO2/95% air) with a gradient ranging from 0.1 to 200 μM of tested compounds. After stimulation, 5 mg/ml thiazol blue tetrazolium bromide (MTT, Sigma-Aldrich) in warm D5030 complete medium was added to each well, and cells were incubated for 4 h at 37° C. (5% CO2). The medium was then removed by aspiration, and the reaction was stopped by the addition of 50 μl DMSO per well.
The amount of reduced MTT (formazan) solubilized in DMSO was then determined spectrophotometrically using absorbance at 570 nm (Safire 2; Tecan).
MTT cellular viability assay was performed on astrocytes exposed to Preswtick Hits (concentrations ranging from 0 uM to 200 uM).
MTT cellular viability assay was performed on astrocytes exposed to CDC54K Hits (concentrations ranging from 0 uM to 200 uM).
On the technique in general: Tetrazolium dyes change colour on reduction, which living cells bring about.

Test [3] deals with primary astrocytes. Kind of test: Mitochondrial activity: production of H2O2 (Amplex red). The class given is cell-based. The note with it: Mus musculus, Astrocyte, 1.5 h; CDC54K hits, 0-200 uM, 90 min. As for the experimental part:
Hydrogene peroxide (H2O2) released in the supernatant is detected enzymatically with Amplex red (Zhou, Diwu et al. 1997). Oxidation of Amplex red is catalysed by the horseradish peroxidase in presence of H2O2 into highly fluorescent resorufin. Fluorescence measure is read at 545 nm extinction, 590 nm emission. The amount of H2O2 was expressed relatively to the proteins content extracted from the cells in culture.
Mitochondrial respiration in astrocytes was measured through production of H2O2 at 90 min after stimulation with Prestwick Hits (10 uM each). […] CCCP (2 uM) was used as positive control.
Mitochondrial respiration in astrocytes was measured through production of H2O2 at 90 min after stimulation with CDC54K Hits (ranging from 0 to 200 uM).

Test [4] relates to primary astrocytes. The experiment in a line: Intracellular glycogen quantification, Example 2. Type of test: cell-based, mouse. Particulars: 10 μM, 3 h. As for the experimental part:
Astrocytes grown on 12-well plates were used for intracellular glycogen quantifications. Cells were stimulated with Vehicle (DMSO), with compounds of the invention (10 μM), or with a positive control for 180 min, at 37° C. 5% CO2/95% air in D5030 medium complemented with
5 mM D-glucose and 44 mM sodium bicarbonate (pH 7.2). […] At the end of the stimulation, medium was removed and replaced with 600 μl of 30 mM Tris HCl, and stored at −20° C.
First, the amount of proteins in each sample was quantified to assess whether harvested astrocytes from primary cell cultures yielded enough and equivalent amounts of proteins on each replicates. Proteins were quantified using the micro BCA Protein Assay kit (Thermo Scientific), according to manufacturer's instructions. Next, intracellular glycogen concentrations were quantified using a 250 μl-aliquot of the same stimulated, thawed, and sonicated cell lysate. After an incubation period of 30 min at 90° C. and 400 rpm, 28 μl of a 0.1M acetic acid/sodium acetate buffer (pH 4.6) was added to each lysate aliquots, which were then separated in two. Each split aliquots received either 5 μl of amyloglucosidase or H2O, and incubated for 120 min at 37° C. After centrifugation at 16'000G for 5 min, 20 μl of supernatant were placed in a 96-well plate, to which 150 μl of a mix containing 0.67 mM ATP, 0.67 mM NADP, 1.8% hexokinase/glucose-6-phosphate dehydrogenase in a 0.1M Tris Buffer-HCl/3.3 mM magnesium (pH 8.1) buffer was added. Fluorescence intensity (340 nm excitation/440 nm emission) was measured using a Safire 2 spectrophotometer. Glucose concentrations were assessed relative to a glucose standard curve, and glycogen concentrations were calculated by subtracting glucose values of samples that had received amyloglucosidase (i.e. that had degraded their glycogen stores) to samples that had not. Intracellular levels of glycogen, which is the main source of glucose storage in the brain, were analyzed in primary astrocytes after treatment with compounds of interest (10 μM, 3 h) (FIG. 5B), and compound GP-0157 (0.1, 1, 10 μM, 3 h) (FIG. 20).

Test [5] concerns cerebral extracellular lactate. Kind of test: In vivo pharmacodynamics - lactate biosensors. Particulars: 100 mg/kg per os, AUC ratio vs vehicle. Also noted: species or system mouse. As for the experimental part: Extracellular levels of lactate were monitored in vivo using lactate biosensors (Pinnacle Technology), according to the manufacturer's instructions. Cannulae were surgically implanted in mice cerebral cerebral motor cortex areas M1/M2 (coordinates: +1.94 mm (to bregma), lateral −1.4 mm (to mideline), ventral −1.0 mm (to dura)) 5-7 days before administration of the compounds. Drugs were administered per os as previously described, and cerebral levels of extracellular lactate were dynamically recorded for 6 hours. Mice were administered vehicle alone first, followed 3 hours later by vehicle or drug (10 or 100 mg/kg). Area Under the Curve (AUC) quantifying the fluctuations of extracellular lactate concentrations for each of the compound tested was calculated using Graphad Prism and the ratio of AUC after drug over Vehicle administration was calculated. Groups of 8 male mice were used for each condition.
To measure biological effect of lead molecules in vivo in the brain, lactate levels were quantified after administration of the drug by using lactate biosensors implanted in the cortex of freely moving mice.

Where [6] appears, read: 1.5 h, CDC54K hits, 0-100 uM, 90 min, read-out: Lactate EC50.

For orientation: EC50 means the concentration giving half of the maximal effect. By IC50 is commonly meant the concentration that gives 50% inhibition. Low values mean inhibition by little substance, high ones a need for much substance. As to `Cc1ccccc1NC(=O)C1CCCN(c2ncnc3oc(C)c(C)c23)C1` (stereo not shown) [F228-0422], the Score_LACTATE in the test with primary astrocytes [1] is on record as 0.6364. Moreover, the EC50 in the test with primary astrocytes [1] (setting [6]) was 0.5 µM. The IC50 with primary astrocytes [2] and with primary astrocytes [3] was above 200 µM in each case. Also, the “mobilization of intracellular glycogen” value in the test on primary astrocytes [4] was “significantly enhance”.
Consider `CCc1nc(-c2csc(S(=O)(=O)NCc3ccc4c(c3)OCO4)c2)no1` [L287-0468], for which the Score_LACTATE with primary astrocytes [1] stood at 0.6179. For the same molecule, in the test with primary astrocytes [1] (setting [6]), the EC50 amounted to 7.9 µM. The half-maximal inhibitory concentration (IC50) in the test with primary astrocytes [2] and in the test with primary astrocytes [3] was above 200 µM in each case. The “mobilization of intracellular glycogen” value in the test with primary astrocytes [4] is “significantly enhance”.
Regarding `CCn1nccc1-c1csc(S(=O)(=O)Nc2ccc(Cl)cc2F)c1` [L924-1031], in the test on primary astrocytes [1], the Score_LACTATE turned out to be 1.632. For the same molecule, the EC50 with primary astrocytes [1] (setting [6]) came to 25.3 µM. Moreover, the values for the IC50 in the test with primary astrocytes [2] and in the test with primary astrocytes [3] were above 200 µM and 48.6 µM, respectively. Moreover, the “mobilization of intracellular glycogen” value in the test on primary astrocytes [4] is given as “significantly enhance”.
Turning to `CSc1cccc(NS(=O)(=O)c2ccc3onc(C(=O)N4CCCC4)c3c2)c1` [L995-0125], the Score_LACTATE with primary astrocytes [1] was determined as 0.9122. Further, in the test on primary astrocytes [1] (setting [6]), the EC50 was determined as 2 µM. Moreover, the IC50 in the test on primary astrocytes [2] was above 200 µM; in the test with primary astrocytes [3], 173 µM.
With `CC(=O)N1CCc2sc(S(=O)(=O)N3CCN(c4ccccc4C)CC3)cc2C1` [P025-0159], the Score_LACTATE in the test on primary astrocytes [1] was 0.9232. The EC50 with primary astrocytes [1] (setting [6]) came to 8.7 µM. In addition, the IC50 in the test with primary astrocytes [2] and with primary astrocytes [3] was above 200 µM throughout. In test [5], the cerebral lactate result was “Significant increase”. Further, the “mobilization of intracellular glycogen” value in the test on primary astrocytes [4] is listed as “significantly enhance”.
In the case of `c1ccc2c(c1)CCN(c1ncnc3sccc13)C2` [T0517-8250], the Score_LACTATE in the test with primary astrocytes [1] is reported as 0.9269. For the same molecule, the “mobilization of intracellular glycogen” value in the test on primary astrocytes [4] is on record as “significantly enhance”.
`N#Cc1ccc(C(=O)N2CCC(Nc3ncnc4c3CCC4)C2)cc1` (stereo not shown) [T636-2387]: in the test with primary astrocytes [1], the Score_LACTATE turned out to be 0.3005. Further, in the test with primary astrocytes [1] (Appendix II, CDC54K library), the “Score Lact.” value was determined as 0.30. Also, the EC50 in the test on primary astrocytes [1] (setting [6]) is 11.5 µM; with primary astrocytes [1] (Appendix II, lactate secretion, read-out: EC50) it was 6.83 µM. The IC50 in the test with primary astrocytes [2] and in the test with primary astrocytes [3] was above 200 µM throughout. For the same molecule, the cerebral lactate result in test [5] is given as “Significant increase”. Also, in the test with primary astrocytes [4], the “mobilization of intracellular glycogen” value is “significantly enhance”.
In the test with primary astrocytes [1], `CCc1ccc(S(=O)(=O)N2CCSC2c2ccc(OC)c(OC)c2)cc1` (stereo not shown) [T5463586] had a Score_LACTATE of 0.3936. Moreover, in the test on primary astrocytes [1] (setting [6]), the EC50 came to 10 µM. The IC50 with primary astrocytes [2] and with primary astrocytes [3] was above 200 µM each time.
The molecule `COc1cc(C)c(Cl)cc1S(=O)(=O)NCc1ccncc1` [T5580243] displayed a Score_LACTATE in the test with primary astrocytes [1] of 0.7229. Besides, the EC50 with primary astrocytes [1] (setting [6]) is 11 µM. Besides, the IC50 in the test with primary astrocytes [2] and in the test on primary astrocytes [3] was above 200 µM each time. Besides, in test [5], the cerebral lactate result is recorded as “Significant increase”.
Turning to `CCc1ccc(S(=O)(=O)Nc2ccc3[nH]ncc3c2)cc1` [T5599014], the Score_LACTATE in the test with primary astrocytes [1] was found to be 0.4419. Further, the EC50 with primary astrocytes [1] (setting [6]) worked out at 8.8 µM. Moreover, the IC50 in the test with primary astrocytes [2] is above 200 µM; in the test with primary astrocytes [3], 158 µM.
Take `O=C1CCCN1c1ccc(S(=O)(=O)Nc2cccc(/C=C/c3ccccn3)c2)cc1` [T5644989]: the Score_LACTATE with primary astrocytes [1] is reported as 0.7859. Further, the EC50 in the test with primary astrocytes [1] (setting [6]) stood at 7.9 µM. Also, the IC50 in the test on primary astrocytes [2] and in the test with primary astrocytes [3] was above 200 µM throughout. For the same molecule, in the test with primary astrocytes [4], the “mobilization of intracellular glycogen” value is “significantly enhance”.
In the test with primary astrocytes [1], `Cc1nc2ccc(NS(=O)(=O)c3cccc(F)c3)cc2s1` [T6937001] yielded a Score_LACTATE of 0.9088. Further, the EC50 in the test with primary astrocytes [1] (setting [6]) was determined as 11.5 µM. Besides, the IC50 in the test with primary astrocytes [2] and with primary astrocytes [3] was above 200 µM throughout. Besides, the “mobilization of intracellular glycogen” value in the test on primary astrocytes [4] is “significantly enhance”.
